Results as given in PMC4193777 (PLoS ONE, 2014).
Where a SMILES comes first, the peptide text is derived from it. Where no end group is shown, it is not given here. The star is where a group is joined. Palmitoyl = CCCCCCCCCCCCCCCC(=O)*

Key:
desensitized FPR2 [1] = test: PAF-induced cross-talk reactivation of desensitized FPR2 (superoxide); assay type: cell-based, human; details: PAF 100 nM; for inhibition of PAF response in FPR2-desensitized neutrophils: inhibitor before PAF, calyculin A 60 nM 10 min at 37°C, PBP10 1 µM, WEB2086 data not shown
Protocol: (§1) Human peripheral blood neutrophils were isolated from buffy coats from healthy blood donors using dextran sedimentation and Ficoll-Paque gradient centrifugation as described. The remaining erythrocytes were disrupted by hypotonic lysis, the neutrophils were washed twice, resuspended in KRG, and stored on melting ice until use. This isolation procedure permits cells to be purified with minimal granule mobilization.
(§2) The NADPH-oxidase activity was determined using isoluminol-enhanced chemiluminescence (CL), [27]. The CL activity was measured in a six-channel Biolumat LB 9505 (Berthold Co., Wildbad, Germany), using disposable 4-ml polypropylene tubes with a 900 µl reaction mixture containing 10^5 cells, isoluminol (2×10^−5 M) and HRP (2 U). The tubes were equilibrated in the Biolumat for 5 min at 37°C, after which the stimulus (100 µl) was added and the light emission was recorded continuously. Receptor desensitized cells were defined as naïve (non-desensitized) cells that had first been stimulated with a receptor specific agonist and returned to baseline after the resulting release of superoxide before a second stimulation. When reactivation experiments were performed with antagonists, the antagonists were added to the CL reaction mixture 1 min before the second stimulation. For studies with signaling inhibitors, cells were incubated with inhibitors at 37°C for 15 min before agonist addition. Control cells received no treatment but were incubated under the same conditions.
Figure 3 PAF- or ATP-stimulation induces reactivation of desensitized FPR2. […] A representative experiment is shown and the time point for addition of FPR2 agonists is indicated by the first arrow, the time point for PAF stimulation (100 nM final concentration) with the second arrow. The control PAF response induced in naïve (non-desensitized) neutrophils is shown for comparison (dotted line). Abscissa: Time of study (min); ordinate: Superoxide production (Mcpm). B. Naïve neutrophils were first desensitized with F2Pal10 (F2Pal10des., 500 nM final concentration) and subsequently stimulated with PAF (100 nM final concentration; time point for PAF addition is indicated by an arrow). The FPR2 specific inhibitor PBP10 (1 µM) was added 1 min prior to PAF stimulation (dashed line) and the release of superoxide anions was recorded continuously. The PAF responses induced in naïve cells (solid line), as well as in F2Pal10-desensitized cells receiving no PBP10 (dotted line), are shown for comparison. Abscissa: Time of study (min); ordinate: Superoxide production (Mcpm). C. Effect of calyculin A on receptor cross-talk induced FPR2 reactivation. Cells desensitized with F2Pal10 (F2Pal10des.) were incubated with the phosphatase inhibitor calyculin A (60 nM; solid line) or buffer as control (dashed line) for 10 min at 37°C prior to PAF stimulation (100 nM). The release of superoxide anions was recorded continuously. Abscissa: Time of study (min); ordinate: Superoxide production (Mcpm). […] Abscissa: Time of study (min); ordinate: Superoxide production (Mcpm). […] The results are given as peak values of superoxide production following addition of ATPγS (mean+SEM; n = 3).
Figure 4 More pronounced reactivation was induced by PAF in neutrophils desensitized by the pepducin F2Pal10. […] The results are given as peak values of superoxide production from three separate experiments for the first stimulation with FPR2 agonists (mean+SEM, n = 3). […]

neutrophils [2] = test: Priming of FPR2 agonist-induced superoxide response; assay type: cell-based, human; details: for priming effect on F2Pal10-induced superoxide / priming effect on WKYMVM-induced superoxide: versus non-primed cells, n = 3; for priming effect on WKYMVM-induced superoxide: WKYMVM 50 nM
Protocol: as §1, §2
A. A representative experiment of an F2Pal10 induced response in control (solid line) and latrunculin A treated neutrophils (dashed line) is shown. The time point for addition of F2Pal10 is indicated by an arrow. Abscissa: Time of study (min); ordinate: Superoxide production (Mcpm). […] A non-priming cut-off line (fold increase = 1) is included as a horizontal broken line in the figure.

neutrophils [3] = test: Inhibition of FPR2 agonist-induced superoxide by pertussis toxin or kinase inhibitors; assay type: cell-based, human; details: for inhibition of F2Pal10- and WKYMVM-induced superoxide by kinase inhibitor: inhibitors 20 nM to 1 µM (1 µM shown), 15 min at 37°C, n = 3
Protocol: as §1, §2
A. Primary human neutrophils were treated with pertussis toxin (PTX, 500 ng/ml final concentration) and samples were withdrawn at indicated time points. […] As a control, the PMA response (5×10^−8 M final concentration) from control cells (120 min incubation without PTX, solid line in the inset) or treated with PTX for 120 min (dashed line in the inset) is shown. Superoxide production (peak values) from pertussis toxin treated neutrophils was compared to that from non-treated control cells. A representative experiment out of more than five is shown. B and C. Fluo-3-AM/FuraRED labeled neutrophils were incubated without any additive (solid lines) or with EGTA (2 mM; dotted lines). […] Traces of representative calcium responses are shown and at least three experiments have been performed. Abscissa, time of study (sec); ordinate, fluorescence (arbitrary unit). D. Primary human neutrophils were incubated with different pharmacological kinase inhibitors (1 µM final concentration) for 15 min at 37°C. Control cells were incubated at the same condition but received no inhibitors. […] Data are presented as % inhibition compared to the control response (peak values of superoxide production were used, mean±SEM, n = 3).
The effects of these inhibitors were determined using different concentrations ranging from 20 nM to 1 µM.

desensitized FPR2 [4] = test: ATP/ATPγS-induced cross-talk reactivation of desensitized FPR2 (superoxide); assay type: cell-based, human; details: desensitized by WKYMVM (40 nM) or F2Pal10 (500 nM); ATPγS 50 µM
Protocol: as §1
(§3) The NADPH-oxidase activity was determined using isoluminol-enhanced chemiluminescence (CL), [27]. The CL activity was measured in a six-channel Biolumat LB 9505 (Berthold Co., Wildbad, Germany), using disposable 4-ml polypropylene tubes with a 900 µl reaction mixture containing 10^5 cells, isoluminol (2×10^−5 M) and HRP (2 U). The tubes were equilibrated in the Biolumat for 5 min at 37°C, after which the stimulus (100 µl) was added and the light emission was recorded continuously. […]
Figure 3 PAF- or ATP-stimulation induces reactivation of desensitized FPR2. […] The FPR2 specific inhibitor PBP10 (1 µM) was added 1 min prior to PAF stimulation (dashed line) and the release of superoxide anions was recorded continuously. […] The release of superoxide anions was recorded continuously. […]

P2Y2R = test: Direct NADPH-oxidase activation in naive neutrophils by P2Y2R agonists; assay type: cell-based, human
Protocol: as §1
as §2, with “For studies with signaling inhibitors, cells were incubated with inhibitors at 37°C for 15 min before agonist addition. Control cells received no treatment but were incubated under the same conditions.” left out

FPR2 [5] = molecular target: T1, FPR2 (Homo sapiens, UniProt P25090); test: Neutrophil NADPH-oxidase activity (superoxide release), direct activation of naive cells; assay type: cell-based; details: read-out: maximum response relative to WKYMVM, superoxide peak, naive human neutrophils; % of response induced by WKYMVM
T1 construct: Human peripheral blood neutrophils were isolated from buffy coats from healthy blood donors; endogenous in cells; host or cells: primary human peripheral blood neutrophils from buffy coats of healthy donors
T1 sequence (P25090 1-351): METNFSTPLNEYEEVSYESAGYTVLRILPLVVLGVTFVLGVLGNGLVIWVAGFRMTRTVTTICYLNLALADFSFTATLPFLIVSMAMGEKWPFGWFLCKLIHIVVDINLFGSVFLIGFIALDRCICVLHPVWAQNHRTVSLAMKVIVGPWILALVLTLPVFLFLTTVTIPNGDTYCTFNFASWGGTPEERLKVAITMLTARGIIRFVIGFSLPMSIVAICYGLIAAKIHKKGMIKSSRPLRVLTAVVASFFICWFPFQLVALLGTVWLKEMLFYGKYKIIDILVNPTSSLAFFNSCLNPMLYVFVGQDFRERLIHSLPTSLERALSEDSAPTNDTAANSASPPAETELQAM
Protocol: as §1, §2
Data analysis was performed using GraphPad Prism 6.0 (Graphpad Software, San Diego, CA, USA).
Representative experiments out of more than five are shown and an arrow indicates the time point for agonist addition. Abscissa: Time of study (min); ordinate: Superoxide production (Mcpm).

FPR2 [6] = molecular target: T1, FPR2; test: Inhibition of F2Pal10-induced superoxide release by receptor inhibitors/antagonists; assay type: cell-based; details: F2Pal10 500 nM; PBP10 1 µM, cyclosporin H 1 µM; representative of more than five
Protocol: as §1, §3
Figure 1 The F2Pal10 pepducin specifically activates FPR2. A. Primary human neutrophils were activated by F2Pal10 (500 nM) in the absence (solid line) or presence of the receptor specific inhibitor PBP10 (FPR2 specific inhibitor; 1 µM final concentration, dashed line) or the FPR1 antagonist cyclosporin H (CysH; 1 µM final concentration, dotted line) and the release of superoxide anions was recorded continuously. […] The release of superoxide anions was recorded continuously. […]

[7] = molecular target: T2, formyl peptide receptor 2 (FPR2) (human (endogenous in neutrophils), UniProt P25090 1-351); test: cell-based or functional assay
T2 sequence (looked up): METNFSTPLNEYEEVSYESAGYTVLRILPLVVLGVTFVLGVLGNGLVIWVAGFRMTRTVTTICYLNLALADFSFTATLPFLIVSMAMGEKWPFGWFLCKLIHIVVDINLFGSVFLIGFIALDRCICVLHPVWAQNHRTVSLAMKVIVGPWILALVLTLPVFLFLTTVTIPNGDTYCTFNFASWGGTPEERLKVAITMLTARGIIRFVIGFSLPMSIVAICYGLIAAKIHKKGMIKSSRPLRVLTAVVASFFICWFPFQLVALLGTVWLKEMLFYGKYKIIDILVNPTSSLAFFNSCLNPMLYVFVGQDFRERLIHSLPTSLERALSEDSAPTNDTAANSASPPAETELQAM

## COC[C@@H]([C@H](O)[C@H](O)C(=O)NCC[C@H](C)c1nc(/C=C/C[C@@H]2O[C@]3(C[C@@H](O)[C@@H]2C)O[C@H]([C@H](C[C@H](O)[C@H](C)[C@H](O)[C@H](C)/C=C(C)/C(C)=C/C=C/C(C)=C\C#N)OC)[C@H](OP(=O)(O)O)C3(C)C)co1)N(C)C [calyculin A]
Desensitized FPR2 [1]
  inhibition of PAF response in FPR2-desensitized neutrophils: inhibited
Neutrophils [2]; F2Pal10 500 nM
  priming effect on F2Pal10-induced superoxide: Very similar priming effects
Neutrophils [2]
  priming effect on WKYMVM-induced superoxide: significantly more superoxide than non-primed control cells

## TNFα
Neutrophils [2]; F2Pal10 500 nM
  priming effect on F2Pal10-induced superoxide: Very similar priming effects
Neutrophils [2]
  priming effect on WKYMVM-induced superoxide: significantly more superoxide than non-primed control cells

## C[S+]([O-])c1ccc(-c2nc(-c3ccncc3)c(-c3ccc(F)cc3)[nH]2)cc1 (stereo not shown) [SB203580]
Neutrophils [3]; WKYMVM 50 nM, F2Pal10 500 nM
  inhibition of F2Pal10- and WKYMVM-induced superoxide by kinase inhibitor: Very similar degrees of inhibition

## platelet activating factor [PAF]
Desensitized FPR2 [1]; FPR2-desensitized neutrophils
  reactivation of desensitized FPR2 by PAF: reactivates desensitized FPR2 to an actively signaling state

## CC(C)(C)n1nc(-c2ccc(Cl)cc2)c2c(N)ncnc21 [PP2]
Neutrophils [3]; WKYMVM 50 nM, F2Pal10 500 nM
  inhibition of F2Pal10- and WKYMVM-induced superoxide by kinase inhibitor: Very similar degrees of inhibition

## Nc1ncnc2c1ncn2[C@@H]1O[C@H](CO[P@](=O)(O)O[P@](=O)(O)O[P@@](=O)(O)S)[C@@H](O)[C@H]1O [ATPγS]
Desensitized FPR2 [4]
  superoxide release in FPR2-desensitized cells by P2Y2R agonist: induced a release of superoxide anions in FPR2 desensitized cells
P2Y2R
  direct activation of NADPH-oxidase in naive neutrophils: can not directly activate the NADPH-oxidase in naïve neutrophils

## Cc1nnc2n1-c1sc(CCC(=O)N3CCOCC3)cc1C(c1ccccc1Cl)=NC2 [WEB2086]
Desensitized FPR2 [1]
  inhibition of PAF response in FPR2-desensitized neutrophils: inhibited

## CCCCCCCCCCCCCCCC(=O)N[C@@H](CCCCN)C(=O)N[C@H](C(=O)N[C@@H](Cc1c[nH]cn1)C(=O)N[C@@H](CCCCN)C(=O)N[C@@H](CCCCN)C(=O)NCC(=O)N[C@@H](CCSC)C(=O)N[C@H](C(=O)N[C@@H](CCCCN)C(=O)N[C@@H](CO)C(=O)O)[C@@H](C)CC)[C@@H](C)CC [F2Pal10] (Palmitoyl-KIHKKGMIKS-OH)
FPR2 [5]
  Emax: 70%

## COC[C@H]1OC(=O)c2coc3c2[C@@]1(C)C1=C(C3=O)[C@@H]2CCC(=O)[C@@]2(C)C[C@H]1OC(C)=O [Wortmannin]
Neutrophils [3]; WKYMVM 50 nM, F2Pal10 500 nM
  inhibition of F2Pal10- and WKYMVM-induced superoxide by kinase inhibitor: Very similar degrees of inhibition

## C/C1=C/C(=O)O[C@@H]2C[C@@H](CC[C@H](C)/C=C\C=C\CC1)O[C@@](O)([C@@H]1CSC(=O)N1)C2 [latrunculin A]
Neutrophils [2]; F2Pal10 500 nM, latrunculin A treated
  effect on neutrophil response to F2Pal10: dramatically increased and prolonged

## Nc1ncnc2c1ncn2[C@@H]1O[C@H](COP(=O)(O)OP(=O)(O)OP(=O)(O)O)[C@@H](O)[C@H]1O [ATP]
Desensitized FPR2 [4]
  superoxide release in FPR2-desensitized cells by P2Y2R agonist: induced a release of superoxide anions in FPR2 desensitized cells
P2Y2R
  direct activation of NADPH-oxidase in naive neutrophils: can not directly activate the NADPH-oxidase in naïve neutrophils

## O=c1c(-c2ccc(O)cc2)coc2cc(O)cc(O)c12 [Genistein]
Neutrophils [3]; WKYMVM 50 nM, F2Pal10 500 nM
  inhibition of F2Pal10- and WKYMVM-induced superoxide by kinase inhibitor: Very similar degrees of inhibition

## CCCCCCCCCCCCCC(=O)O[C@@H]1[C@@H](C)[C@@]2(O)[C@@H](C=C(CO)C[C@]3(O)C(=O)C(C)=C[C@@H]23)[C@@H]2C(C)(C)[C@]12OC(C)=O [PMA]
Neutrophils [3]; PMA 5×10^−8 M, PTX 120 min
  PMA responsiveness of pertussis toxin treated cells: retained their responsiveness to PMA

## pertussis toxin
Neutrophils [3]; PTX 500 ng/ml, 90 and 120 min, WKYMVM 50 nM, F2Pal10 500 nM
  inhibition of F2Pal10- and WKYMVM-induced oxidase response by pertussis toxin: largely inhibited

## cyclosporin H
FPR2 [6]
  inhibition of F2Pal10-induced superoxide response: not affected

## Palmitoyl-KIHKKGMIKS [F2Pal10 pepducin]
[7]
  maximum superoxide response of human neutrophils, relative to that induced by WKYMVM: 70%
  superoxide release (NADPH-oxidase activity, isoluminol chemiluminescence) from human neutrophils, F2Pal10 50-2000 nM, EC50: ~300 nM
